Counter-ions that a name gives are not always drawn.
Molecular target: T1, human EP4 (hEP4) receptor (Homo sapiens, UniProt P35408)
T1 construct: expressed in transfected cells; host or cells: HEK-293 T cells, transient co-transfection with polyethylenimine
Test: In vitro human EP4 functional antagonist activity using BRET biosensors (cAMP EPAC biosensor, TCS2510 stimulation)
Assay type: cell-based
Conditions: antagonist activity vs EC60 TCS2510, hEP4 in HEK-293 T cells
Method: Examples of the present invention were tested successively for their agonist and antagonist activities on human EP4 (hEP4) receptor transiently over-expressed in HEK-293 T cells. […] The assay used to measure compound activity is based on the BRET technology. The unimolecular cAMP biosensor used to detect intracellular cAMP levels following GPCR stimulation consists of the EPAC protein fused to N- and C-terminal of Luciferase and GFP respectively.
Cell Culture and Transfection: HEK-293 T cells are maintained in Dulbecco's Modified Eagle's Medium supplemented with 10% Foetal Calf Serum, 1% Penicillin/Streptomycin at 37° C./5% CO2. Cells are co-transfected using polyethylenimine (25 kDa linear) with two DNA plasmids encoding hEP4, EPAC fused to luciferase (BRET donor) and to GFP (BRET acceptor). After transfection, cells are cultured (40,000 cells per well) for 48 h at 37° C./5% CO2.
BRET assay: Receptor activity is detected by changes in BRET signal. On the day of the assay, cells are rinsed and incubated in assay buffer (1.8 mM CaCl2, 1 mM MgCl2, 2.7 mM KCl, 137 mM NaCl, 0.4 mM NaH2PO4, 5.5 mM D-Glucose, 11.9 mM NaHCO3, 25 mM Hepes). Then, plates are equilibrated 1 h at 22° C. before adding compounds. Compounds and luciferase substrate are added to the cells using an automated device (Freedom Evo®, Tecan) and BRET readings are collected on EnVision (PerkinElmer) with specific filters (410 nm BW 80 nm, 515 nm BW 30 nm). Agonist and antagonist activities of compounds are consecutively evaluated on the same cell plate. Agonist activity is first measured after 5 min incubation with compound alone on the cells. Then, cells are stimulated by an EC60 TCS2510 concentration and luminescence is recorded for additional 10 min. EC60 TCS2510 concentration is the concentration giving 60% of the maximal TCS2510 response. Agonist or antagonist activities are evaluated in comparison to basal signals evoked by assay buffer or EC60 TCS2510 alone, respectively.
For IC50 determination, a dose-response test is performed using 10 concentrations (ranging over 4.5 logs) of each compound. Dose-response curves are fitted using the sigmoidal dose-response (variable slope) analysis in GraphPad Prism software (GraphPad Software) and IC50 of antagonist activity is calculated. Dose-response experiments are performed in duplicate, in two independent experiments. IC50 values are categorized as following: A: IC50<0.1 μM; B: IC50<1 μM.

T1 sequence (P35408 whole entry): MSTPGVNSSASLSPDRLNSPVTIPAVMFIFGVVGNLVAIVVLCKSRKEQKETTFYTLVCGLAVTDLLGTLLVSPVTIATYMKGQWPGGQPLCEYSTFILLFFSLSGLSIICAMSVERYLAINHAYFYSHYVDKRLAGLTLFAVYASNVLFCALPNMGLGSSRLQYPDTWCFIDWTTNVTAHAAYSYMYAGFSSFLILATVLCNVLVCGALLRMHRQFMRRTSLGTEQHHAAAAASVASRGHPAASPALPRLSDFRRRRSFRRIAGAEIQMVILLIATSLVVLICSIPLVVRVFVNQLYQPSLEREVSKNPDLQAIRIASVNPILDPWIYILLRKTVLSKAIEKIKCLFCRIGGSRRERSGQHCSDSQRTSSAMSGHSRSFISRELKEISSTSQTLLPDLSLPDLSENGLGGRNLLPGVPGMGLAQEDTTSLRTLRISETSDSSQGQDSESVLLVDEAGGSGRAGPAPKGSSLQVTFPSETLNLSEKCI

IC50 | Structure (SMILES)
< 100 nM | C[C@H](NC(=O)C1(N(C)CCOc2cccc(Cl)c2)CCOCC1)c1ccc(C(=O)O)cc1 [Example 9, 4-[(1S)-1-[[4-[2-(3-Chlorophenoxy)ethyl-methyl-amino]tetrahydropyran-4-carbonyl]amino]ethyl]benzoic acid, hydrochloride]
< 1000 nM | C[C@H](NC(=O)C1(c2ccnc(OCC3CCCCC3)c2)CCOCC1)c1ccc(C(=O)O)cc1 [Example 116, 4-[(1S)-1-[[4-[2-(Cyclohexylmethoxy)-4-pyridyl]tetrahydropyran-4-carbonyl]amino]ethyl]benzoic acid]
< 100 nM | COc1cccc(O[C@@H]2CCN(C3(C(=O)N[C@@H](C)c4ccc(C(=O)O)cc4)CCOCC3)C2)c1 [Example 148, 4-[(1S)-1-[[4-[(3R)-3-(3-Methoxyphenoxy)pyrrolidin-1-yl]tetrahydropyran-4-carbonyl]amino]ethyl]benzoic acid, hydrochloride]
< 1000 nM | C[C@H](NC(=O)C1(c2cccc(OCC3CC3)c2)CCOCC1)c1ccc(C(=O)O)cc1 [Example 101, 4-[(1S)-1-[[4-[3-(Cyclopropylmethoxy)phenyl]tetrahydropyran-4-carbonyl]amino]ethyl]benzoic acid]
< 1000 nM | O=C(O)c1ccc(C2(NC(=O)C3(N4CC[C@H](Oc5cccc(Cl)c5)C4)CCOCC3)CC2)cc1 [Example 139, 4-[1-[[4-[(3S)-3-(3-Chlorophenoxy)pyrrolidin-1-yl]tetrahydropyran-4-carbonyl]amino]cyclopropyl]benzoic acid, hydrochloride]
< 1000 nM | C[C@H](NC(=O)C1(NCCOc2ccccc2)CCC1)c1ccc(C(=O)O)cc1 [Example 69, 4-[(1S)-1-[[1-(2-Phenoxyethylamino)cyclobutanecarbonyl]amino]ethyl]benzoic acid, hydrochloride]
< 1000 nM | C[C@H](NC(=O)C1(c2cccc(OCC3CCOCC3)c2)CCOCC1)c1ccc(C(=O)O)cc1 [Example 98, 4-[(1S)-1-[[4-[3-(Tetrahydropyran-4-ylmethoxy)phenyl]tetrahydropyran-4-carbonyl]amino]ethyl]benzoic acid]
< 100 nM | CN(CCOc1cccc(F)c1)C1(C(=O)NC2(c3ccc(C(=O)O)cc3)CC2)CCOCC1 [Example 32, 4-[1-[[4-[2-(3-Fluorophenoxy)ethyl-methyl-amino]tetrahydropyran-4-carbonyl]amino]cyclopropyl]benzoic acid, hydrochloride]
< 1000 nM | C[C@H](NC(=O)C1(NCCOc2cccc(Cl)c2)CCCC1)C12CC(C(=O)O)(C1)C2 [Example 64, 3-[(1S)-1-[[1-[2-(3-Chlorophenoxy)ethylamino]cyclopentanecarbonyl]amino]ethyl]bicyclo[1.1.1]pentane-1-carboxylic acid, hydrochloride]
< 1000 nM | C[C@H](NC(=O)C1(N2CC[C@@H](Oc3cccc(C(F)(F)F)c3)C2)CCOCC1)c1ccc(Br)cc1 [Example 190, N—((S)-1-(4-Bromophenyl)ethyl)-4-((R)-3-(3-(trifluoromethyl)phenoxy)pyrrolidin-1-yl)tetrahydro-2H-pyran-4-carboxamide, hydrochloride]
< 100 nM | C[C@H](NC(=O)C1(N2CC[C@@H](Oc3cccc(C(F)(F)F)c3)C2)CCOCC1)c1ccc(S(C)(=N)=O)cc1 (stereo partly drawn) [Example 180, N-((1S)-1-(4-(S-Methylsulfonimidoyl)phenyl)ethyl)-4-((R)-3-(3-(trifluoromethyl)phenoxy)pyrrolidin-1-yl)tetrahydro-2H-pyran-4-carboxamide, hydrochloride]
< 100 nM | C[C@H](NC(=O)C(C)(C)N1CC[C@@H](Oc2cccc(C(F)(F)F)c2)C1)c1ccc(C(N)=O)cc1 [Example 173, 4-[(1S)-1-[[2-[(3R)-3-[3-(Trifluoromethyl)phenoxy]pyrrolidin-1-yl]-2-methylpropane-carbonyl]amino]ethyl]benzamide, hydrochloride]
< 1000 nM | CN(CCOc1ccccc1)C1(C(=O)NC2(c3ccc(C(=O)O)cc3)CC2)CCOC1 (stereo not shown) [Example 76, 4-[1-[[3-[Methyl(2-phenoxyethyl)amino]tetrahydrofuran-3-carbonyl]amino]cyclopropyl]benzoic acid, hydrochloride]

Source: US12527779B2, “Prostaglandin E2 (PGE2) EP4 receptor antagonists” (Domain Therapeutics, priority 2019, dated 2026)
